Results reported in US20110183969A1, “ANTIFUNGAL COMBINATION THERAPY” (priority 2008, published 2011).
Values after ≈ are worked out from the molar mass of the structure shown. Where two headings read alike, the source gives them in different places.

Key:
Format in all cases: cell-based
Fusarium solani FS2 = test: 24 hr Fusarium solani MIC (RPMI medium, FS2); details: banded into grades
Description: Between 1 and 5 mgs of compound were accurately weighed out into a sterile Eppendorf tube. The compound was dissolved in DMSO to give a solution containing 5 mg/mL. Tubes were stored at −20° C. until required.
On the day of testing thawed solutions were vortex mixed to ensure homogeneity. 30 μL of solution was removed and added to 570 μL of sterile water in a separate sterile Eppendorf The thoroughly mixed solution was used to prepare a series of doubling dilutions in water, in a deep well plate. […] replicate plates were prepared using a Minitrak by aspirating 20 μL from each well into eleven clear polystyrene 96 well plates.
Spores of Aspergillus spp. (Aspergillus fumigatus [two strains], Aspergillus terreus [two strains], Aspergillus niger and Aspergillus flavus) were harvested from cultures grown on Sabarauds agar for 5 days, and resuspended in PBS/Tween 80 to approx 1×10^7 cfu/mL. Other filamentous fungi (Absidia corymbifera, Fusarium solani, Rhizomucor, Scedosporium spp., Trichophyton spp.), were grown on Sabarauds agar for 2-10 days and spores/hyphae resuspended in PBS/Tween to give approx 1×10^7 cfu/mL. Candida species (Candida albicans, Candida glabrata, Candida krusei, Candida parapsilosis and Candida tropicalis) were grown on Sabarauds agar, cells were harvested from the agar using a sterile loop and resuspended in PBS/Tween 80 to approx 1×10^6 cfu/mL. Each organism suspension was diluted in RPMI medium, containing 2% glucose and 0.135 M MOPS buffer (pH 7.0) to 0.5−2×10^4 cfu/mL for Aspergillus spp. and other filamentous fungi and 0.5-2×10^3 cfu/mL for yeast. 80 μL of an organism suspension was added to each well of the plate containing drug dilutions.
This produced MIC plates with a drug range 50-0.05 mg/L and organism inocula of 1-2×10^4 cfu/mL for Aspergillus spp. and other filamentous fungi and 1-2×10^3 cfu/mL for yeasts. All plates were incubated for 24-48 hrs at 35° C. Growth was assessed by monitoring the optical density at 485 nm for each well. The MIC of a compound is the lowest drug concentration that inhibits growth of an organism by >80% compared with a drug free control. MICs are recorded as mg/L. Other growth media can be used for susceptibility testing, and the activity of the described compounds can also be assessed in a medium comprising 1% glucose, 1% ammonium chloride and 0.5% yeast extract (YAG medium). To perform MIC tests in this medium, dilutions of compounds are prepared in microtitre plates as described above. Fungal strains to be tested are grown and harvested in an identical manner to that described above, each organism suspension is then diluted in YAG medium to 0.5-2×10^4 cfu/mL for Aspergillus spp. and other filamentous fungi and 0.5-2×10^3 cfu/mL for yeast. 80 μL of an organism suspension was added to each well of the plate containing drug dilutions. This produced MIC plates with a drug range 50-0.05 mg/L and organism inocula of 1-2×10^4 cfu/mL for Aspergillus spp. and other filamentous fungi and 1-2×10^3 cfu/mL for yeasts. All plates were incubated for 24 hrs at 35° C. Growth was assessed by monitoring the optical density at 485 nm for each well. The MIC of a compound is the lowest drug concentration that inhibits growth of an organism by >70% compared with a drug free control. MICs are recorded as mg/L. In cases where the MIC of an organism is […] mg/L the MIC is repeated using a concentration range of 0.5-0.0005 mg/L. MIC tests in YAG medium have more clear-cut endpoints and have slightly lower MICs than those performed in RPMI medium.
24 hr Fusarium solani MIC Results (RPMI Medium, FS2): […]

Aspergillus flavus = test: MIC (YAG medium); details: YAG medium, MIC banded into grades; for MIC: Aspergillus flavus, read-out: MIC A. flavus (grade)
How it was run: (§1)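 Growth inhibition was determined by optical density at 485 nm after a 24-hour incubation at 35° C in glucose/ammonium chloride/yeast extract (YAG) medium. MICs, expressed in mg/L, were taken as the lowest drug level reducing growth by more than 70% relative to untreated wells.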

[1] = test system: Aspergillus fumigatus AF210; test: MIC (YAG medium); details: YAG medium, MIC banded into grades, AF210; for MIC: Aspergillus fumigatus, read-out: MIC A. fumigatus 210 (grade)
How it was run: as §1

[2] = test system: Aspergillus fumigatus AF293; test: MIC (YAG medium); details: YAG medium, MIC banded into grades, AF293; for MIC: Aspergillus fumigatus, read-out: MIC A. fumigatus (grade)
How it was run: as §1

Aspergillus niger = test: MIC (YAG medium); details: YAG medium, MIC banded into grades; for MIC: Aspergillus niger, read-out: MIC A. niger (grade)
How it was run: as §1

Aspergillus terreus AT49 = test: MIC (YAG medium); details: YAG medium, MIC banded into grades, AT49; for MIC: Aspergillus terreus, read-out: MIC A. terreus 49 (grade)
How it was run: as §1

Aspergillus terreus AT4 = test: MIC (YAG medium); details: YAG medium, MIC banded into grades, AT4; for MIC: Aspergillus terreus, read-out: MIC A. terreus (grade)
How it was run: as §1

Row | Molecule | MIC (Fusarium solani FS2; read-out: MIC) | MIC (Aspergillus flavus) | MIC [1] | MIC [2] | MIC (Aspergillus niger) | MIC (Aspergillus terreus AT49) | MIC (Aspergillus terreus AT4) | MIC (Fusarium solani FS2) | MIC A. flavus (grade) (Aspergillus flavus) | MIC A. fumigatus 210 (grade) [1] | MIC A. fumigatus (grade) [2] | MIC A. niger (grade) (Aspergillus niger) | MIC A. terreus 49 (grade) (Aspergillus terreus AT49) | MIC A. terreus (grade) (Aspergillus terreus AT4)
1 | CON=C1CCN(c2ccc(NC(=O)C(=O)c3c(-c4ccccc4)cc4ccccn34)cc2)CC1 [Example 2, N-[4-(4-methoxyimino-piperidin-1-yl)-phenyl]-2-oxo-2-(2-phenyl-indolizin-3-yl)-acetamide] | < 1 µg/mL | < 1 µg/mL | < 1 µg/mL | < 1 µg/mL | < 1 µg/mL | < 1 µg/mL | < 1 µg/mL |  |  |  |  |  |  | 
2 | C=C1CCN(c2ccc(NC(=O)C(=O)c3c(-c4ccccc4)cc4ccccn34)cc2)CC1 [Example 3, N-[4-(4-methylene-piperidin-1-yl)-phenyl]-2-oxo-2-(2-phenyl-indolizin-3yl) acetamide] |  |  |  |  |  |  |  | 3 (A grade of 3 represents an MIC of less than 1 mg/L) | 3 (A grade of 3 represents an MIC of less than 1 mg/L) | 3 (A grade of 3 represents an MIC of less than 1 mg/L) | 3 (A grade of 3 represents an MIC of less than 1 mg/L) | 3 (A grade of 3 represents an MIC of less than 1 mg/L) | 3 (A grade of 3 represents an MIC of less than 1 mg/L) | 3 (A grade of 3 represents an MIC of less than 1 mg/L)
3 | CC(C)c1cc(NC(=O)C(=O)c2c(-c3ccccc3)cc3ccccn23)ccc1C(=O)OCCn1ccnc1C(C)C [Example 13, 2-Isopropyl-4-[2-oxo-2-(2-phenyl-indolizin-3-yl)-acetylamino]-benzoic acid 2-(2-isopropyl-imidazol-1-yl)-ethyl ester] | 1 to 10 µg/mL (≈ 1.78 to 17.8 µM) | < 1 µg/mL | 1 to 10 µg/mL (≈ 1.78 to 17.8 µM) | < 1 µg/mL | > 10 µg/mL | < 1 µg/mL | 1 to 10 µg/mL (≈ 1.78 to 17.8 µM) |  |  |  |  |  |  | 
4 | O=C(Nc1ccc(N2CCC3(CC2)OCCO3)cc1)C(=O)c1c(-c2ccccc2)cc2ccccn12 [Example 23, N-[4-(1,4-dioxa-8-aza-spiro[4.5]dec-8-yl)-phenyl}-2-oxo-2-(2-phenyl-indolizine-3-yl)-acetamide] | < 1 µg/mL | < 1 µg/mL | < 1 µg/mL | < 1 µg/mL | < 1 µg/mL | < 1 µg/mL | < 1 µg/mL |  |  |  |  |  |  | 
5 | O=C(Nc1ccc(N2CCN(c3cccc(NCCO)n3)CC2)cc1)C(=O)c1c(-c2ccccc2)cc2ccccn12 [Example 87, N-(4-{4-[6-(2-hydroxyethylamino)-pyridin-2-yl]-piperazin-1-yl}-phenyl)-2-oxo-2-(2-phenyl-indolizin-3-yl)-acetamide] |  | < 1 µg/mL | 1 to 10 µg/mL (≈ 1.78 to 17.8 µM) | < 1 µg/mL | > 10 µg/mL | < 1 µg/mL | 1 to 10 µg/mL (≈ 1.78 to 17.8 µM) |  |  |  |  |  |  | 
6 | O=C(Nc1ccc(N2CCN(c3cccc(CCO)n3)CC2)cc1)C(=O)c1c(-c2ccccc2)cc2ccccn12 [Example 88, N-(4-{4-[6-(2-hydroxy-ethyl)-pyridin-2-yl]-piperazin-1-yl}-phenyl)-2-oxo-2-(2-phenyl-indolizin-3-yl)-acetamide] |  | < 1 µg/mL | < 1 µg/mL | < 1 µg/mL | < 1 µg/mL | < 1 µg/mL | < 1 µg/mL |  |  |  |  |  |  | 
7 | O=C(Nc1ccc(N2CCN(c3cc(OCCO)ccn3)CC2)cc1)C(=O)c1c(-c2ccccc2)cc2ccccn12 [Example 89, N-(4-{4-[4-(2-Hydroxy-ethoxy)-pyridin-2-yl]-piperazin-1-yl}-phenyl)-2-oxo-2-(2-phenyl-indolizin-3-yl)-acetamide] |  | < 1 µg/mL | 1 to 10 µg/mL (≈ 1.78 to 17.8 µM) | 1 to 10 µg/mL (≈ 1.78 to 17.8 µM) | 1 to 10 µg/mL (≈ 1.78 to 17.8 µM) | < 1 µg/mL | 1 to 10 µg/mL (≈ 1.78 to 17.8 µM) |  |  |  |  |  |  | 
8 | O=C(Nc1ccc(NCCOc2ccccn2)cc1)C(=O)c1c(-c2ccccc2)cc2ccccn12 [Example 90, 2-Oxo-2-(2-phenyl-indolizin-3-yl)-N-{4-[2-(pyridin-2-yloxy)-ethylamino]-phenyl}-acetamide] |  | < 1 µg/mL | < 1 µg/mL | < 1 µg/mL | < 1 µg/mL | < 1 µg/mL | < 1 µg/mL |  |  |  |  |  |  | 
9 | Cc1cc(C)nc(CNc2ccc(NC(=O)C(=O)c3c(-c4ccccc4)cc4ccccn34)cc2)c1 [Example 91, N-{4-[(4,6-Dimethyl-pyridin-2-ylmethyl)-amino]-phenyl}-2-oxo-2-(2-phenyl-indolizin-3-yl)-acetamide] |  | < 1 µg/mL | < 1 µg/mL | < 1 µg/mL | < 1 µg/mL | < 1 µg/mL | < 1 µg/mL |  |  |  |  |  |  | 
10 | Cc1cc(C)nc(NCCNc2ccc(NC(=O)C(=O)c3c(-c4ccccc4)cc4ccccn34)cc2)c1 [Example 92, N-{4-[2-(4,6-dimethyl-pyridin-2-yl-amino)-ethylamino]-phenyl}-2-oxo-2-(2-phenyl-indolizin-3-yl)-acetamide] |  | < 1 µg/mL | < 1 µg/mL | < 1 µg/mL | 1 to 10 µg/mL (≈ 1.99 to 19.9 µM) | < 1 µg/mL | < 1 µg/mL |  |  |  |  |  |  | 
11 | N-(4-{3-[(4,6-Dimethyl-pyridin-2-yl)-methyl-amino]-propyl}-phenyl)-2-oxo-2-(2-phenyl-indolizin-3-yl)-acetamide [Example 70] |  |  |  |  |  |  |  |  | 3 (A grade of 3 represents an MIC of less than 1 mg/L) | 3 (A grade of 3 represents an MIC of less than 1 mg/L) | 3 (A grade of 3 represents an MIC of less than 1 mg/L) | 3 (A grade of 3 represents an MIC of less than 1 mg/L) | 3 (A grade of 3 represents an MIC of less than 1 mg/L) | 3 (A grade of 3 represents an MIC of less than 1 mg/L)
12 | N-[4-(3-Ethyl-1H-imidazol-2yl methyl)-phenyl]-2-oxo-2-(2-o-tolyl-indolizin-3yl)-acetamide [Example 30] |  |  |  |  |  |  |  |  | 1 (a grade of 1 represents an MIC of greater than 10 mg/L) | 1 (a grade of 1 represents an MIC of greater than 10 mg/L) | 1 (a grade of 1 represents an MIC of greater than 10 mg/L) | 1 (a grade of 1 represents an MIC of greater than 10 mg/L) | 1 (a grade of 1 represents an MIC of greater than 10 mg/L) | 1 (a grade of 1 represents an MIC of greater than 10 mg/L)
13 | N-{4-[4-(2,6-Dimethyl-pyrimidin-4-yl)-piperazin-1-yl]-phenyl}-2-(2-phenyl-indolizin-3-yl)-acetamide [Example 45] |  |  |  |  |  |  |  |  | 3 (A grade of 3 represents an MIC of less than 1 mg/L) | 3 (A grade of 3 represents an MIC of less than 1 mg/L) | 3 (A grade of 3 represents an MIC of less than 1 mg/L) | 2 (A grade of 2 represents an MIC of from 1 to 10) | 3 (A grade of 3 represents an MIC of less than 1 mg/L) | 3 (A grade of 3 represents an MIC of less than 1 mg/L)
